Source: patent US8927571B2, “Pyrido[4,3-B]indoles and methods of use” (Medivation Technologies, Inc., priority 2009, dated 2015)

The compounds below were run against T1, human recombinant serotonin (5-Hydroxytryptamine) 5-HT2A receptor (Homo sapiens, UniProt P28223) (assay: Serotonin 5-HT2A radioligand binding assay ([3H]Ketanserin)). Settings: 0.5 nM [3H]Ketanserin, read-out: Percent Inhibition of ligand binding, Serotonin (1 μM) 5-HT2A.
T1 construct: expressed in transfected cells; host or cells: Chinese hamster ovary (CHO-K1) cells
Experimental: Compounds of the invention were incubated with 0.5 nM [^3H]Ketanserin for 60 min at 25° C. Non-specific binding was estimated in the presence of 1 μM Mianserin. Receptor proteins were filtered and washed, the filters were then counted to determine [^3H]Ketanserin specifically bound. Compounds were screened at 1 μM or lower, using 1% DMSO as vehicle. Biochemical assay results are presented as the percent inhibition of specific binding in Table 4.

T1 sequence (P28223 whole entry): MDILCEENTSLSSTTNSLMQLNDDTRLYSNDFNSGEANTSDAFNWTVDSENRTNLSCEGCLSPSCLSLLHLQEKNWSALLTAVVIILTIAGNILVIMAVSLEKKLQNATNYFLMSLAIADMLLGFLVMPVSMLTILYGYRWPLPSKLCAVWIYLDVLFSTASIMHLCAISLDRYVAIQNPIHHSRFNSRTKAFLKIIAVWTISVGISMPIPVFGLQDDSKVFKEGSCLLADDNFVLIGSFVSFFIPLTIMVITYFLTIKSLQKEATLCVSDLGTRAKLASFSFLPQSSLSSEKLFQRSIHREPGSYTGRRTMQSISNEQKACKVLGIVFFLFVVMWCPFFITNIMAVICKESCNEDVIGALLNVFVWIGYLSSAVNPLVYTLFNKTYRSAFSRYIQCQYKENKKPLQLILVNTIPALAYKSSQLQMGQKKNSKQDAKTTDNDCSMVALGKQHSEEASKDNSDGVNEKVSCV

| SMILES | inhibition at 1 µM [%] |
| --- | --- |
| CN1CCc2c(c3cc(Cl)ccc3n2CC2(c3ccc(F)cc3)OCCO2)C1 [Compound 4, 8-chloro-5-((2-(4-fluorophenyl)-1,3-dioxolan-2-yl)methyl)-2-methyl-2,3,4,5-tetrahydro-1H-pyrido[4,3-b]indole] | 99 |
| CN1CCc2c(c3cc(Cl)ccc3n2CC2(c3ccc(Cl)cc3)OCCO2)C1 [Compound 5, 8-chloro-5-((2-(4-chlorophenyl)-1,3-dioxolan-2-yl)methyl)-2-methyl-2,3,4,5-tetrahydro-1H-pyrido[4,3-b]indole] | 99 |
| Cc1ccc2c(c1)c1c(n2CC2(c3ccc(F)cc3)OCCO2)CCN(C)C1 [Compound 3, 5-((2-(4-fluorophenyl)-1,3-dioxolan-2-yl)methyl)-2,8-dimethyl-2,3,4,5-tetrahydro-1H-pyrido[4,3-b]indole] | 99 |
| CCOC(=O)CC(Cn1c2c(c3cc(C)ccc31)CN(C)CC2)c1ccc(F)cc1 (stereo not shown) [Compound 6, ethyl 4-(2,8-dimethyl-3,4-dihydro-1H-pyrido[4,3-b]indol-5(2H)-yl)-3-(4-fluorophenyl)butanoate] | 95 |
| CNC(=O)CC(Cn1c2c(c3cc(C)ccc31)CN(C)CC2)c1ccc(F)cc1 (stereo not shown) [Compound 8, 4-(2,8-dimethyl-3,4-dihydro-1H-pyrido[4,3-b]indol-5(2H)-yl)-3-(4-fluorophenyl)-N-methylbutanamide] | 85 |
| Cc1ccc2c(c1)c1c(n2CC2(c3ccccc3)OCCO2)CCN(C)C1 [Compound 2, 2,8-dimethyl-5-((2-phenyl-1,3-dioxolan-2-yl)methyl)-2,3,4,5-tetrahydro-1H-pyrido[4,3-b]indole] | 93 |
| Cc1ccc2c(c1)c1c(n2CC(CC(=O)O)c2ccc(F)cc2)CCN(C)C1 (stereo not shown) [Compound 7, 4-(2,8-dimethyl-3,4-dihydro-1H-pyrido[4,3-b]indol-5(2H)-yl)-3-(4-fluorophenyl)butanoic acid] | 9 |
